Series [1] is described as follows: Unbound fraction in rat brain homogenate at 1 uM incubated for 6 hrs by LC-MS/MS analysis. The class given is ADME, tissue-based.
Series [2] can be described thus: Plasma protein binding in human assessed as unbound fraction at 5 uM incubated for 6 hrs by LC-MS/MS analysis. The class given is ADME, cell-free.
The nature of series [3]: Plasma protein binding in rat assessed as unbound fraction at 5 uM incubated for 6 hrs by LC-MS/MS analysis. The class given is ADME, cell-free.

Regarding `Cc1c(Cl)cnc2sc3c(NC4CC(c5ccncc5)C4)ncnc3c12` (stereo not given), the Fu in series [1] came to 0.005; in series [2], 0.01; in series [3], 0.01.

Consider `Cc1nc2sc3c(NC4CC4)ncnc3c2c(C)c1Cl.Cl`, for which the values for the Fu in series [2] and in series [3] were 0.004 and 0.01, respectively.

The values above are taken from ChEMBL document CHEMBL5579875, “Discovery of VU6008677: A Structurally Distinct Tricyclic M4 Positive Allosteric Modulator with Improved CYP450 Profile” (ACS Med Chem Lett, 2024).
